From ChEMBL document CHEMBL5390317, “Novel Indane-Containing NBTIs with Potent Anti-Gram-Negative Activity and Minimal hERG Inhibition” (ACS Med Chem Lett, 2023)
In brackets after ≈: the same amount, converted by molar mass.

Key:
Escherichia coli [1] = test: Antibacterial activity against Escherichia coli ATCC BAA-2340 assessed as inhibition in bacterial growth incubated for 20 to 24 hrs by CLSI based broth microdilution method; assay type: functional; settings: Escherichia coli, ATCC BAA-2340, time 20-24 hrs; read-out: MIC
Pseudomonas aeruginosa [2] = test: Antibacterial activity against Pseudomonas aeruginosa NCTC 11451 assessed as inhibition in bacterial growth incubated for 20 to 24 hrs by CLSI based broth microdilution method; assay type: functional; settings: Pseudomonas aeruginosa, NCTC 11451, time 20-24 hrs; read-out: MIC
hERG (KCNH2) [3] = biological target: T1, hERG (KCNH2) (Homo sapiens, UniProt Q12809); test: Inhibition of hERG potassium channel expressed in CHO cells at 10 uM by electrophysiological patch clamp assay relative to control; assay type: toxicity, cell-based; settings: CHO cells expressing hERG
T1 sequence (Q12809 whole entry): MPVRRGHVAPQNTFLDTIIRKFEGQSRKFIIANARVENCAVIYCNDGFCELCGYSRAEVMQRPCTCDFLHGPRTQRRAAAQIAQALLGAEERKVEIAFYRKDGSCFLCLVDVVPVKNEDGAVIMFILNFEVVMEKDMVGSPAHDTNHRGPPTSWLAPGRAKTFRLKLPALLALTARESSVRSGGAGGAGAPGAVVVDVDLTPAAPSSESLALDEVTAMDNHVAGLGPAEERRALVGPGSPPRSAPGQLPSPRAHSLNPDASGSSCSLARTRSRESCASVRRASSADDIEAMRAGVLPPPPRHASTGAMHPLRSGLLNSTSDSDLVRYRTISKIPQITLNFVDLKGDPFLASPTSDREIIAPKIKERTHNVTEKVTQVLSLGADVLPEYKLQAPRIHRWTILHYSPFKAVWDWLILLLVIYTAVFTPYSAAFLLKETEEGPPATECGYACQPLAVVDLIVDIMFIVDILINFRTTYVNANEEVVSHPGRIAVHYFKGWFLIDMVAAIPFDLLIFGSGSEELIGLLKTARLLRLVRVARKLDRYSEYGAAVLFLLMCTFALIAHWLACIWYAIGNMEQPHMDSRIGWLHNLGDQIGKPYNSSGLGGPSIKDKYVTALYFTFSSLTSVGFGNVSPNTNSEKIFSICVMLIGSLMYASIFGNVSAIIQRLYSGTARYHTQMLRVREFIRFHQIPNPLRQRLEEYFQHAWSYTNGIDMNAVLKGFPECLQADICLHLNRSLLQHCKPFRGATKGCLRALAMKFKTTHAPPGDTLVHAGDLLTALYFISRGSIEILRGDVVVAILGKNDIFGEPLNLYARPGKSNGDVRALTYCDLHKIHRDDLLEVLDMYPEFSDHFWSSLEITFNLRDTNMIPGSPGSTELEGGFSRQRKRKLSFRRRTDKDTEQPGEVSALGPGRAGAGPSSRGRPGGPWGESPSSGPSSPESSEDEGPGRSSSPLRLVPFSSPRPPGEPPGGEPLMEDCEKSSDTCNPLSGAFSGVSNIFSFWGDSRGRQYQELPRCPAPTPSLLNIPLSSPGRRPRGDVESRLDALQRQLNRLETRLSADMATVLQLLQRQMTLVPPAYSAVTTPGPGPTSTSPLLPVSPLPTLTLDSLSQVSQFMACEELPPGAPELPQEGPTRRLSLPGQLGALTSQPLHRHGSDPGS

Klebsiella pneumoniae [4] = test: Antibacterial activity against Klebsiella pneumoniae ATCC BAA-1705 assessed as inhibition in bacterial growth incubated for 20 to 24 hrs by CLSI based broth microdilution method; assay type: functional; settings: time 20-24 hrs
Escherichia coli [5] = test: Antibacterial activity against Escherichia coli ATCC 25922 assessed as inhibition in bacterial growth incubated for 20 to 24 hrs by CLSI based broth microdilution method; assay type: functional; settings: time 20-24 hrs
Acinetobacter baumannii [6] = test: Antibacterial activity against Acinetobacter baumannii ATCC 51432 assessed as inhibition in bacterial growth incubated for 20 to 24 hrs by CLSI based broth microdilution method; assay type: functional; settings: Acinetobacter baumannii, ATCC 51432, time 20-24 hrs; read-out: MIC
[7] = Inhibition of Escherichia coli topoisomerase 4 incubated for 120 mins by Transcreener ADP2 FI assay
Pseudomonas aeruginosa [8] = test: Antibacterial activity against Pseudomonas aeruginosa NCTC 13437 assessed as inhibition in bacterial growth incubated for 20 to 24 hrs by CLSI based broth microdilution method; assay type: functional; settings: Pseudomonas aeruginosa, NCTC 13437, time 20-24 hrs; read-out: MIC
Klebsiella pneumoniae [9] = test: Antibacterial activity against Klebsiella pneumoniae ATCC 700603 assessed as inhibition in bacterial growth incubated for 20 to 24 hrs by CLSI based broth microdilution method; assay type: functional; settings: Klebsiella pneumoniae, ATCC 700603, time 20-24 hrs; read-out: MIC
Staphylococcus aureus [10] = test: Antibacterial activity against Staphylococcus aureus ATCC BAA-1556 assessed as inhibition in bacterial growth incubated for 20 to 24 hrs by CLSI based broth microdilution method; assay type: functional; settings: Staphylococcus aureus, ATCC BAA-1556, time 20-24 hrs; read-out: MIC
Escherichia coli [11] = test: Antibacterial activity against Escherichia coli ATCC 35218 assessed as inhibition in bacterial growth incubated for 20 to 24 hrs by CLSI based broth microdilution method; assay type: functional; settings: Escherichia coli, ATCC 35218, time 20-24 hrs; read-out: MIC
Acinetobacter baumannii [12] = test: Antibacterial activity against Acinetobacter baumannii ATCC 19606 assessed as inhibition in bacterial growth incubated for 20 to 24 hrs by CLSI based broth microdilution method; assay type: functional; settings: time 20-24 hrs
DNA gyrase = DNA gyrase (Escherichia coli, UniProt P0AES4+P0AES6); test: Inhibition of Escherichia coli DNA gyrase incubated for 80 mins by Transcreener ADP2 FI assay; assay type: protein-complex assay
Escherichia coli [13] = test: Antibacterial activity against Escherichia coli K-12 BW25113 deltaTolC assessed as inhibition in bacterial growth incubated for 20 to 24 hrs by CLSI based broth microdilution method; assay type: functional; settings: time 20-24 hrs
Staphylococcus aureus [14] = test: Antibacterial activity against Staphylococcus aureus ATCC 29213 assessed as inhibition in bacterial growth incubated for 20 to 24 hrs by CLSI based broth microdilution method; assay type: functional; settings: Staphylococcus aureus, ATCC 29213; time 20-24 hrs; read-out: MIC
Klebsiella pneumoniae [15] = test: Antibacterial activity against Klebsiella pneumoniae ATCC BAA-2146 assessed as inhibition in bacterial growth incubated for 20 to 24 hrs by CLSI based broth microdilution method; assay type: functional; settings: Klebsiella pneumoniae, ATCC BAA-2146, time 20-24 hrs; read-out: MIC
Pseudomonas aeruginosa [16] = test: Antibacterial activity against Pseudomonas aeruginosa ATCC 27853 assessed as inhibition in bacterial growth incubated for 20 to 24 hrs by CLSI based broth microdilution method; assay type: functional; settings: time 20-24 hrs
Klebsiella pneumoniae [17] = test: Antibacterial activity against Klebsiella pneumoniae ATCC 10031 assessed as inhibition in bacterial growth incubated for 20 to 24 hrs by CLSI based broth microdilution method; assay type: functional; settings: time 20-24 hrs
hERG (KCNH2) [18] = biological target: T1, hERG (KCNH2); test: Inhibition of hERG potassium channel expressed in CHO cells at 1 uM by electrophysiological patch clamp assay relative to control; assay type: toxicity, cell-based; settings: CHO cells expressing hERG
[19] = biological target: Voltage-gated inwardly rectifying potassium channel KCNH2 (Homo sapiens, UniProt Q12809); test: (§1) Inhibition of hERG potassium channel expressed in CHO cells by electrophysiological patch clamp assay; assay type: toxicity, cell-based
Sequence of Voltage-gated inwardly rectifying potassium channel KCNH2 (Q12809 whole entry): as above

hERG (KCNH2) [20] = biological target: T1, hERG (KCNH2); test: as §1; assay type: toxicity, cell-based; settings: human, CHO cells expressing hERG
Escherichia coli [21] = test: Antibacterial activity against Escherichia coli K-12 BW25113 assessed as inhibition in bacterial growth incubated for 20 to 24 hrs by CLSI based broth microdilution method; assay type: functional; settings: Escherichia coli, K-12 BW25113, time 20-24 hrs; read-out: MIC
Acinetobacter baumannii [22] = test: Antibacterial activity against Acinetobacter baumannii ATCC BAA-747 assessed as inhibition in bacterial growth incubated for 20 to 24 hrs by CLSI based broth microdilution method; assay type: functional; settings: Acinetobacter baumannii, ATCC BAA-747, time 20-24 hrs; read-out: MIC

| Structure (SMILES) | MIC (Escherichia coli [1]) [µg/mL] | MIC (Pseudomonas aeruginosa [2]) [µg/mL] | inhibition at 10 µM (hERG (KCNH2) [3]) [%] | MIC (Klebsiella pneumoniae [4]) [µg/mL] | MIC (Escherichia coli [5]) [µg/mL] | MIC (Acinetobacter baumannii [6]) [µg/mL] | IC50 [7] [µM] | MIC (Pseudomonas aeruginosa [8]) [µg/mL] | MIC (Klebsiella pneumoniae [9]) [µg/mL] | MIC (Staphylococcus aureus [10]) [µg/mL] | MIC (Escherichia coli [11]) [µg/mL] | MIC (Acinetobacter baumannii [12]) [µg/mL] | IC50 (DNA gyrase) [µM] | MIC (Escherichia coli [13]) [µg/mL] | MIC (Staphylococcus aureus [14]) [µg/mL] | MIC (Klebsiella pneumoniae [15]) [µg/mL] | MIC (Pseudomonas aeruginosa [16]) [µg/mL] | MIC (Klebsiella pneumoniae [17]) [µg/mL] | inhibition at 1 µM (hERG (KCNH2) [18]) [%] | IC50 [19] [µM] | further results |
| --- | --- | --- | --- | --- | --- | --- | --- | --- | --- | --- | --- | --- | --- | --- | --- | --- | --- | --- | --- | --- | --- |
| NC1(COc2cc(F)c3c(c2)CC(CNCCC2CN(c4ccc5c(n4)NC(=O)CO5)C(=O)O2)C3)CC1 (configuration not stated) | 0.25 (≈ 0.489 µM) | 2 (≈ 3.91 µM) | 45 | 1 (≈ 1.95 µM) | 0.125 (≈ 0.244 µM) | 1 (≈ 1.95 µM) | 0.039 | 1 (≈ 1.95 µM) | 2 (≈ 3.91 µM) | 0.125 (≈ 0.244 µM) | 0.125 (≈ 0.244 µM) | 0.5 (≈ 0.977 µM) | 0.1 | ≤ 0.06 | ≤ 0.06 | 1 (≈ 1.95 µM) | 0.5 (≈ 0.977 µM) | ≤ 0.06 | < 1 | > 10 | IC20 (hERG (KCNH2) [20]): 3.1 µM; MIC (Escherichia coli [21]): ≤ 0.06 µg/mL; MIC (Acinetobacter baumannii [22]): ≤ 0.06 µg/mL |
| N#Cc1cc(OCCN)cc2c1CC(CNCCC1CN(c3ccc4c(n3)NC(=O)CO4)C(=O)O1)C2 (configuration not stated) | 0.25 (≈ 0.508 µM) | 1 (≈ 2.03 µM) | < 1 | 2 (≈ 4.06 µM) | 0.25 (≈ 0.508 µM) | 16 (≈ 32.5 µM) | 0.006 | 0.5 (≈ 1.02 µM) | 2 (≈ 4.06 µM) | 1 (≈ 2.03 µM) | 0.25 (≈ 0.508 µM) | 16 (≈ 32.5 µM) | 0.017 | ≤ 0.06 | 0.5 (≈ 1.02 µM) | 4 (≈ 8.12 µM) | 0.125 (≈ 0.254 µM) | ≤ 0.06 | < 1 | > 20 | IC20 (hERG (KCNH2) [20]): > 10 µM; MIC (Escherichia coli [21]): 0.125 µg/mL (≈ 0.254 µM); MIC (Acinetobacter baumannii [22]): 1 µg/mL (≈ 2.03 µM) |
| CC(C)(N)COc1cc(C#N)c2c(c1)CC(CNCCC1CN(c3ccc4c(n3)NC(=O)CO4)C(=O)O1)C2 (configuration not stated) | 0.125 (≈ 0.24 µM) | 1 (≈ 1.92 µM) | 11 | 2 (≈ 3.84 µM) | 0.25 (≈ 0.48 µM) | 8 (≈ 15.4 µM) | 0.023 | 0.5 (≈ 0.96 µM) | 4 (≈ 7.68 µM) | 0.25 (≈ 0.48 µM) | 0.25 (≈ 0.48 µM) | 8 (≈ 15.4 µM) | 0.016 | ≤ 0.06 | 0.125 (≈ 0.24 µM) | 4 (≈ 7.68 µM) | ≤ 0.06 | ≤ 0.06 | 3.5 | > 20 | IC20 (hERG (KCNH2) [20]): > 10 µM; MIC (Escherichia coli [21]): ≤ 0.06 µg/mL; MIC (Acinetobacter baumannii [22]): 0.25 µg/mL (≈ 0.48 µM) |
| N#Cc1cc(OCC2(N)CC2)cc2c1CC(CNCCC1CN(c3ccc4c(n3)NC(=O)CO4)C(=O)O1)C2 (configuration not stated) | ≤ 0.06 | 1 (≈ 1.93 µM) | 28 | 1 (≈ 1.93 µM) | ≤ 0.06 | 2 (≈ 3.86 µM) | 0.019 | 0.5 (≈ 0.964 µM) | 1 (≈ 1.93 µM) | ≤ 0.06 | 0.125 (≈ 0.241 µM) | 1 (≈ 1.93 µM) | 0.035 | ≤ 0.06 | ≤ 0.06 | 4 (≈ 7.71 µM) | 0.25 (≈ 0.482 µM) | ≤ 0.06 | < 1 | > 20 | IC20 (hERG (KCNH2) [20]): 6.4 µM; MIC (Escherichia coli [21]): ≤ 0.06 µg/mL; MIC (Acinetobacter baumannii [22]): ≤ 0.06 µg/mL |
